Data reported in patent US11840527B2, “Non-fused thiophene derivatives and their uses” (ENYO PHARMA, priority 2018, dated 2023).
pIC50: −log10 of the molar value.

Key:
[1] = tested on: PRXF PC-3M; assay: Cytotoxicity, propidium iodide-based monolayer assay; format: cell-based; details: Homo sapiens, 96 h, prostate adeno carcinoma, four days of treatment, T/C=50%, read-out: Absolute IC50
Procedure: (§1) The cytotoxicity was tested for compounds of the invention on five different cell-lines, namely LXFL 1121, MAXF 401, MMXF L-636, PRXF PC-3M and UXF 1138 which are respectively lung large cell carcinoma, breast adeno carcinoma, multiple myeloma, prostate adeno carcinoma and uterine sarcoma.
(§2) Therefore, the compounds have a cytotoxicity against tumor cells and can be used for treating cancer. Materials and Methods Compound Handling A working stock solution of the test compounds was prepared in DMSO at a concentration of 33 mM or 8.25 mM, and small aliquots were stored at −20° C. On each day of an experiment, a frozen aliquot of the working stock solution was thawed and stored at room temperature prior to and during treatment. All liquid handling steps were performed using the Tecan Freedom EVO 200 platform. First, serial 2-fold dilutions of the 33 mM DMSO working stock solution were done in DMSO. The DMSO dilutions were then diluted 1:22 into cell culture medium in an intermediate dilution plate. Finally, 10 μl taken from the intermediate dilution plate were transferred to 140 μl/well of the final assay plate. Thus, the DMSO serial dilutions were diluted 1:330 with cell culture medium, and the DMSO concentration in the assay was 0.3% v/v. Tumor Cell Lines The cell lines used in this study were derived from solid tumors as well as from hematological malignancies. Cell lines were routinely passaged once or twice weekly and maintained in culture for up to 20 passages. Most cell lines were grown at 37° C. in a humidified atmosphere with 5% CO2 in RPMI 1640 medium (25 mM HEPES, with L-glutamine, #FG1385, Biochrom, Berlin, Germany) supplemented with 10% (v/v) fetal calf serum (Sigma, Taufkirchen, Germany) and 0.05 mg/mL gentamicin (Life Technologies, Karlsruhe, Germany). […] Briefly, cells were harvested from exponential phase cultures, counted and plated in 96 well flat-bottom microtiter plates at a cell density of 4,000 to 40,000 cells/well dependent on the cell line's growth rate. […] After an incubation period of 1-2 hours at room temperature, fluorescence (FU) was measured using the Enspire Multimode Plate Reader (excitation λ=530 nm, emission λ=620 nm) to quantify the amount of attached viable cells. Data Evaluation An assay was considered fully evaluable if the following quality control criteria were fulfilled: • Z′-factor calculated within the assay plate ≥0.5 • control/background ratio >3.0 • coefficient of variation in the growth control wells ≤30% Drug effects were expressed in terms of the percentage of the fluorescence signal, obtained by comparison of the mean signal in the treated wells with the mean signal of the untreated controls (expressed by the test-versus-control value, T/C-value [%]): […]

[2] = tested on: UXF 1138; assay: as above; format: cell-based; details: 96 h; UXF 1138, uterine sarcoma; four days of treatment; T/C=50%; read-out: Absolute IC50
Procedure: as §1, §2

[3] = tested on: MAXF 401; assay: as above; format: cell-based; details: Homo sapiens, MAXF401, 96 h; MAXF 401, breast adeno carcinoma; four days of treatment; T/C=50%; read-out: Absolute IC50
Procedure: as §1, §2

[4] = tested on: MMXF L-363; assay: as above; format: cell-based; details: Homo sapiens, 96 h; MMXF L-363, multiple myeloma; four days of treatment; T/C=50%; read-out: Absolute IC50
Procedure: as §1, §2

[5] = tested on: H1N1 (influenza A/New Caledonia/20/99); assay: Antiviral effect on A549 cells infected with H1N1; format: cell-based, H1N1 A/New Caledonia/20/99 virus; details: Influenza A virus, MOI 0.1, 48 h post-infection, MUNANA neuraminidase readout
Summary of the method: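 A549 cells dosed with test compounds over a concentration range and infected at once with clinical isolate H1N1 A/New Caledonia/20/99 (MOI 0.1) in DMEM with […] TPCK trypsin, 37 °C. At 48 h, supernatant neuraminidase activity measured with MUNANA substrate (1 h, 37 °C); 4-MU fluorescence at ex 365/em 450 nm.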

O=C(Nc1scc(-c2ccc(Cl)c(F)c2)c1C(=O)O)c1ccccc1 [Compound #2, 2-Benzamido-4-(4-chloro-3-fluoro-phenyl)thiophene-3-carboxylic acid]
pIC50 [1]: 5.32
pIC50 [2]: 5.35
pIC50 [3]: 5.18
pIC50 [4]: 4.92
pIC50 [5]: 6.68
